This test addresses T1, human Edg-1 receptor (Homo sapiens, UniProt P21453).
T1 construct: FLAG (N); expressed in transfected cells; membrane preparation
The test can be described thus: GTP-γ-S assay using human Edg-1 receptors (scintillation proximity assay, CHO Flp-In membrane preparation). As to conditions: test compound at 10 μM; high control 10 μM S1P = 100% activation; membranes of CHO Flp-In cells overexpressing human Edg-1; read-out: % activation (Edg-1 receptor activation in percent of the activation by 10 μM S1P). In kind it is biochemical. The source says:
A) GTP-γ-S Assay Using Human Edg-1 Receptors
In order to determine the Edg-1 receptor activation by the compounds of the invention, a GTP-γ-S (GTP-γ-S=guanosine 5′-[thio]triphosphate) assay for G-protein coupled receptor binding based on the scintillation proximity assay principle was used, employing a cell membrane preparation from a CHO Flp-In cell line which constitutively overexpresses the human Edg-1 receptor.
A membrane preparation was obtained by standard methods from the aforedescribed CHO Flp-In cell line constitutively overexpressing the human Edg-1 receptor. Briefly, the cryopreserved cells were taken in culture and grown until confluency in T175 cell culture flasks (Becton Dickinson, cat. no. 35 5001). Cell culture was stopped by washing with calcium-free phosphate-buffered saline (PBS; Gibco, cat. no. 14190), and cells were harvested with a rubber-policeman in 4° C. cold and calcium-free PBS supplemented with a protease inhibitor cocktail (complete protease inhibitor; Roche, cat. no. 1697498; 1 tablet per 50 ml) and subsequently centrifuged at 4° C. for 15 min at 1100×g (Heraeus Minifuge T). For cell lysis, the pellet was resuspended in a 4° C. cold hypotonic buffer consisting of 5 mM HEPES (Sigma-Aldrich, cat. no. H-0981), 1 mM EDTA (disodium salt; Merck, cat. no. 8418) supplemented with protease inhibitor cocktail (as above) in which cells were stored for another 15 min on ice. After lysis, cells were centrifuged at 4° C. for 10 min at 400×g (Heraeus Minifuge T). The pellet was disrupted in a Dounce homogenizer, diluted with the supernatant of the previous centrifugation and subsequently centrifuged at 4° C. for 10 min at 500×g (Heraeus Minifuge T) in order to separate nuclei and still intact cells from the membranes mainly present in the supernatant. The supernatant was then diluted in hypotonic buffer and centrifuged (Beckmann, Avanti J251) at approximately 18600×g for 2 h at 4° C. After centrifugation, the membrane pellet was resuspended in a storing buffer consisting of 20 mM HEPES; 150 mM NaCl (Merck, cat. no. 6400), 1 mM EDTA (as above) supplemented with protease inhibitor cocktail (as above). The membrane preparation was aliquoted and stored at −80° C. Protein concentration of the membrane preparation was determined in a sample by means of a commercial protein assay (Bio-Rad, DC Protein Assay, cat. nos. 500-0113, 500-0114, 500-0115).
The Edg-1 membrane preparation obtained in (b) was employed in a commercially available scintillation proximity assay (SPA) kit for G-protein coupled receptor binding from Amersham Biosciences/GE Healthcare (code RPNQ0210), in which ligand-induced binding of ^35S-radiolabeled GTP-γ-S to the receptor-containing membrane, which is bound to scintillation beads, stimulates the emission of light and allows the quantification of the in vitro activity of the Edg-1 agonistic compound. The assay was performed on a 96-well plate substantially according to the manufacturer's instructions. Before starting the experiments, scintillation beads were suspended in a reconstitution buffer consisting of Tris-HCl (pH 7.4) supplemented with 0.1% (w/v) sodium azide and subsequently diluted on ice with assay buffer (consisting of 20 mM HEPES, 100 mM NaCl, 1 mM EDTA (as above), 1 mM dithiothreitol (DTT), adjusted to pH 7.4) to a final bead concentration of 30 mg/ml.
Wells were charged with 10 μl of the specified assay buffer, 10 μl of a 100 μM guanosine diphosphate (GDP) solution, and 10 μl of a solution of the test compound in assay buffer/dimethyl sulfoxide resulting in a final concentration of the test compound of 10 μM. For the high controls, 10 μl of a solution of sphingosine-1-phosphate (S1P; Sigma, cat. no. S-9666), resulting in a final S1P concentration of 10 μM, and for the low controls 10 μl of assay buffer, was added into the respective wells instead of the solution of the test compound. All wells contained equivalent amounts of dimethyl sulfoxide. […]
A general note: In a scintillation proximity assay essentially only radioactivity close to the scintillant gives light.
T1 sequence (P21453 whole entry): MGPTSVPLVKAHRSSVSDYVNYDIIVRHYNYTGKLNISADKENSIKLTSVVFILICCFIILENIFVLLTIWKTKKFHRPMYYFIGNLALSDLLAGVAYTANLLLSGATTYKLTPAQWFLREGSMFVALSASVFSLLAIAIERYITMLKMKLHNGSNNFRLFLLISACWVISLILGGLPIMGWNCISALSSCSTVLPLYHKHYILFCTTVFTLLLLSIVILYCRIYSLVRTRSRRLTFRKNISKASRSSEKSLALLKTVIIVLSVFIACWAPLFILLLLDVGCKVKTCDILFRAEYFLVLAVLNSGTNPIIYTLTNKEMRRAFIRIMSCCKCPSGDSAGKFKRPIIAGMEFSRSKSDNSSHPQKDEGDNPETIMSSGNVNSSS
Regarding `CCCc1nc(Oc2cc(F)ccc2F)nc2oc(-c3cc(C)c(OCC(=O)O)c(C)c3)nc12` [Example 1, {4-[5-(2,5-Difluorophenoxy)-7-propyloxazolo[5,4-d]pyrimidin-2-yl]-2,6-dimethylphenoxy}acetic acid], the activation at 10 µM is 94%.

For `CCCc1nc(OCCC(F)(F)F)nc2oc(-c3cc(C)c(OCC(=O)O)c(C)c3)nc12` [Example 2, {2,6-Dimethyl-4-[7-propyl-5-(3,3,3-trifluoropropoxy)oxazolo[5,4-d]pyrimidin-2-yl]phenoxy}acetic acid], the activation at 10 µM was determined as 97%.

`Cc1cc(-c2nc3c(CC(C)C)nc(Oc4ccccc4F)nc3o2)cc(C)c1OCC(=O)O` [Example 3, {4-[5-(2-Fluorophenoxy)-7-isobutyloxazolo[5,4-d]pyrimidin-2-yl]-2,6-dimethylphenoxy}acetic acid]: the activation at 10 µM amounted to 92%.

Regarding `Cc1cc(-c2nc3c(CC(C)C)nc(OCCC(F)(F)F)nc3o2)cc(C)c1OCC(=O)O` [Example 4, {4-[7-Isobutyl-5-(3,3,3-trifluoropropoxy)oxazolo[5,4-d]pyrimidin-2-yl]-2,6-dimethylphenoxy}acetic acid], the activation at 10 µM was determined as 106%.

Consider `Cc1cc(-c2nc3c(CC(C)C)nc(Oc4cccc(Cl)c4)nc3o2)cc(C)c1OCC(=O)O` [Example 5, {4-[5-(3-Chlorophenoxy)-7-isobutyloxazolo[5,4-d]pyrimidin-2-yl]-2,6-dimethylphenoxy}acetic acid], for which the activation at 10 µM stood at 86%.

Turning to `CCCc1nc(Oc2cccc(Cl)c2)nc2oc(-c3cc(C)c(OCC(=O)O)c(C)c3)nc12` [Example 6, {4-[5-(3-Chlorophenoxy)-7-propyloxazolo[5,4-d]pyrimidin-2-yl]-2,6-dimethylphenoxy}acetic acid], the activation at 10 µM stood at 118%.

For `Cc1cc(-c2nc3c(CC(C)C)nc(Cc4ccc(Cl)cc4)nc3o2)cc(C)c1OCC(=O)O` [Example 7, {4-[5-(4-Chlorobenzyl)-7-isobutyloxazolo[5,4-d]pyrimidin-2-yl]-2,6-dimethylphenoxy}acetic acid], the activation at 10 µM was 38%.

As to `Cc1cc(-c2nc3c(CC(C)C)nc(Cc4ccccc4)nc3o2)cc(C)c1OCC(=O)O` [Example 8, [4-(5-Benzyl-7-isobutyloxazolo[5,4-d]pyrimidin-2-yl)-2,6-dimethylphenoxy]acetic acid], the activation at 10 µM worked out at 98%.

With `Cc1cc(-c2nc3c(C(C)C)nc(Cc4ccc(Cl)cc4)nc3o2)cc(C)c1OCC(=O)O` [Example 9, {4-[5-(4-Chlorobenzyl)-7-isopropyloxazolo[5,4-d]pyrimidin-2-yl]-2,6-dimethylphenoxy}acetic acid], the activation at 10 µM turned out to be 90%.

For the origin of these results see patent US9321787B2, “Carboxylic acid derivatives having an oxazolo[5,4-d]pyrimidine ring” (SANOFI, priority 2011, dated 2016).
